{"source": "patent US20070141072A1", "about": "“Use of multifunctional transcription factor yin-yang-1 and variants thereof for treating illnesses, especially type 1 diabetes” (ERNST-MORITZ-ARNDT-UNIVERSITAT GREIFSWALD, priority 2002, published 2007)", "tested_on": "calbindin-D28k", "test": "Calbindin-D28k protein expression in isolated islets of Langerhans, Western blot", "assay_type": "cell-based, rat", "conditions": "increasing calcium concentration in the medium", "source_text": "There were however significant differences in protein expression using Western blot analysis. The calcium-binding protein, calbindin-D28k, was already twice as high in BB.6S rat islets under basal conditions as that of BB/OK rats. […] Calbindin-D28k is a cytosolic calcium-binding protein, which is primarily expressed in the kidney, but also in the pancreas and brain, and which can prevent apoptotic (gene controlled) cell death (41, 42). In functional terms it is supposed that calbindin-D28k is involved in regulation of calcium reabsorption.\nCalbindin-D28k protein expression using Western blot analysis under basal conditions and with increasing calcium concentration in the medium.", "data": [{"compound": "[Ca+2]", "note": "[calcium]", "values": [{"measurement": "protein expression of calbindin-D28k", "setting": "BB.6S islets", "result": "clearly increased"}, {"measurement": "protein expression of calbindin-D28k", "setting": "BB/OK islets", "result": "almost uninfluenced"}]}]}
